Bounds are passed on as bounds.

In data set [1] the test system is human small cell lung cancer NCI-H1417 cells subcutaneous xenograft tumor. The data set can be described thus: In vivo pharmacodynamic study, NCI-H1417 subcutaneous xenograft tumor CB-17 SCID mouse model. On the set-up: species or system CB-17 SCID mice. How it is done: The purpose of this experiment was to investigate the efficacy of some of the compounds of the present invention in the in vivo xenograft tumor of human small cell lung cancer NCI-H1417 cells in a CB-17 SCID mouse model.
Week age and weight: 6-8 weeks old, weight 18-23 g
Human small cell lung cancer NCI-H1417 cells were cultured in vitro in a single layer cultured in RPMI-1640 medium (Sigma-aldrich, R0883), supplemented with 10% fetal bovine serum and cultured at 37° C. 5% CO2. When the cell saturation is 80%-90%. The cells are harvested, counted, and inoculated.
0.2 mL of 10×10^6 (NCI-H1417 cells were subcutaneously inoculated into the right back of each mouse (PBS:Matrigel=1:1). After 21 days of tumor inoculation, group administration was started when the average volume reached 107 mm^3.
The experimental solvent was the 10% hydroxypropyl-β-cyclodextrin solution. The preparation method was as follows: 100 g of hydroxypropyl-β-cyclodextrin was weighed into a 1000 mL jar, 800 mL of ultrapure water was added, stirred overnight until completely dissolved, and then made up to 1000 mL. The test substance was dissolved in a solvent, and was prepared into a uniform solution of a certain concentration and stored at 4° C.
The experimental indicator is to investigate whether tumor growth is inhibited, delayed or cured. Tumor diameters were measured twice a week using vernier calipers. The tumor volume is calculated as: V=0.5a×b^2, and a and b represent the long and short diameters of the tumor, respectively.
The antitumor effect of the compound was evaluated by TG (%). TGI (%), reflecting the tumor growth inhibition rate. TGI (%) calculation: TGI (%)=[1−(the average tumor volume at the end of a treatment group−the average tumor volume at the beginning of the treatment group)/(the average tumor volume at the end of the treatment of the solvent control group−The average tumor volume at the start of treatment in the solvent control group) was ×100%. Solvent control: Vehicle (10% hydroxypropyl-β-cyclodextrin solution).

In a further data set the target is human LSD1 (Homo sapiens (Human), UniProt O60341). The data set can be described thus: Evaluation of enzyme activity: LSD1 fluorescence coupling enzyme assay (HRP/Amplex Red). Particulars: human LSD1, histone H3(1-21)K4me2 peptide 10 μM, 30 min pre-incubation. It is filed as biochemical. The method in brief:
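Human LSD1 preincubated 30 min with compound, then reacted with H3(1-21)K4me2 peptide (10 μM). FAD-dependent H2O2 detected via HRP/Amplex Red fluorescence (Ex/Em 535/590). Ten-dose, 3-fold dilutions in duplicate from 10 μM gave IC50s, binned into activity classes.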

The test system of the next data set is H1417 cells. The data set can be described thus: Cell proliferation inhibitory activity on H1417 cells (CellTiter-Glo, 10 days). Particulars: for IC50: 10 days incubation; for Emax: NCI-H1417, H1417 cells, read-out: Maximum inhibition percentage (%). In kind it is cell-based, human. The method in brief: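 H1417 cells in RPMI 1640 with fetal bovine serum were treated with 10-point 3-fold compound dilutions for 10 days. Viability was read by CellTiter-Glo luminescence. IC50 came from a four-parameter fit of percent inhibition, and maximal inhibition was also categorized.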
On the technique in general: Cellular ATP, detected with luciferase, serves as a proxy for viable cell number.

A further data set addresses hERG potassium channel (Homo sapiens (Human), UniProt Q12809). The data set can be described thus: Assay on inhibiting hERG potassium channel (automatic patch clamp, CHO-hERG cells). It is filed as cell-based. Particulars: Qpatch, max test concentration 40 μM. The method, then:
Experimental purpose: Using automatic patch clamp method to detect the effect of the sample to be tested on hERG potassium channel.
4.1.1 CHO-hERG cells were cultured in 175 cm^2 flasks. When the cell density was increased to 60-80%, the culture solution was removed and the resultant was washed with 7 mL PBS (Phosphate Buffered Saline phosphate buffer), then 3 mL of digestive juice was added to digest.
4.1.2 After the digestion finished, 7 mL culture solution was added to neutralize. Then centrifuge, aspirate the supernatant, and then resuspend by adding 5 mL culture solution to ensure a cell density of 2-5×10^6/mL.
Single cell high impedance sealing and whole cell pattern formation were all done automatically by the Qpatch instrument. After the whole-cell recording mode was obtained, the cells were clamped at −80 mV. 50-Millisecond−50 mV preamplifier was applied prior to a 5 second+40 mV depolarization stimulus. Then the voltage was repolarized to −50 mV for 5 seconds and back to −80 mV. This voltage stimulation was applied every 15 seconds, and the extracellular fluid was recorded over 5 minutes after 2 minutes' record, and then the administration process was started. The compound concentration was started from the lowest test concentration, and each test concentration was given for 2.5 minutes. Test at least 3 cells (n≥3) for each concentration.
4.4.1 Dilute 20 mM mother liquor of the compound with extracellular fluid 5 μL of 20 mM mother liquor of the compound was added to 2495 μL extracellular fluid, and the mixture was 500-fold diluted to 40 μM. Then 0.2% DMSO in extracellular fluid was 3-fold diluted sequentially to obtain the final concentration to be tested.
4.4.2 The max test concentration was 40 μM, 6 concentrations were 40, 13.33, 4.44, 1.48, 0.49, and 0.16 μM respectively.
Experimental data was analyzed by XLFit software.
A general note: The hERG channel carries a current that helps repolarise heart muscle cells.

Data set [2] can be described thus: Pharmacokinetic evaluation in C57BL/6 mice after intravenous and oral administration. It is filed as in vivo. The settings on record: male, mouse, plasma; for Cmax / clearance / half-life / Vd: IV 1 mg/kg; for Cmax: oral 2 mg/kg, route of Cmax not stated, read-out: max concentration Cmax; for clearance: read-out: clearance CL; for half-life: read-out: half-life T1/2 (IV, h) (converted); for Vd: read-out: volumes of distribution Vdss; for bioavailability: PO 2 mg/kg vs IV 1 mg/kg, read-out: bioavailability F (%); for AUC(0-t): PO 2 mg/kg, read-out: the area under the plasma concentration-time curve AUC0-last PO. The method, then: Experimental purposes: To test the pharmacokinetics of compounds in C57BL/6 mice
C57BL/6 mice (male, 7-9 weeks old, Shanghai Slack)
Test the pharmacokinetics characteristics of rodents after intravenous and oral administration in accordance with standard protocols, and the candidate compound was formulated into a clear solution in the experiment. The mice were administered by intravenous injection and orally once. The intravenous and oral vehicle is a 10% aqueous solution of hydroxypropyl β-cyclodextrin or a physiological saline solution. Six male C57BL/6 mice were employed in this assay, three of them were administered intravenously at a dose of 1 mg/kg, plasma samples were collected at 0 h (before administration) and 0.0833, 0.25, 0.5, 1, 2, 4, 7, 24 h after administration. Another three mice were administered by oral gavage at a dose of 2 mg/kg, plasma samples were collected at 0 h (before administration) and 0.5, 1, 2, 3, 4, 6, 24 h after administration. Collect whole blood samples within 24 hours, centrifuge at 3000 g for 15 minutes, separate the supernatant to obtain a plasma sample, 4 times volume of the internal standard acetonitrile solution was added to precipitate the protein. Centrifuge the supernatant and add an equal volume of water and centrifuge to take the supernatant. LC-MS/MS was used to quantitatively analyze plasma concentrations and calculate pharmacokinetic parameters such as max concentration (Cmax), clearance (CL), half-life (T1/2), volumes of distribution (Vdss), the area under the plasma concentration-time curve (AUC0-last), bioavailability (F), etc.

The mark [3] stands for this setting: 1 mg/kg, ip, BIW, day 28 after administration.
Setting [4] is: 1 mg/kg, ip, BIW, day 34 after administration.
The mark [5] stands for this setting: Homo sapiens, NCI-H1417, 240 h, H1417 cells.
Where [6] appears, read: Homo sapiens, highest percentage inhibition of cell viability.
Where [7] appears, read: 5 mg/kg, PO, QD, day 34 after administration.
[8] abbreviates: 1.5 mg/kg, PO, QD, day 27 after administration.
Where [9] appears, read: 2.5 mg/kg, PO, BID, day 34 after administration.

Chain of hERG potassium channel (Q12809 whole entry): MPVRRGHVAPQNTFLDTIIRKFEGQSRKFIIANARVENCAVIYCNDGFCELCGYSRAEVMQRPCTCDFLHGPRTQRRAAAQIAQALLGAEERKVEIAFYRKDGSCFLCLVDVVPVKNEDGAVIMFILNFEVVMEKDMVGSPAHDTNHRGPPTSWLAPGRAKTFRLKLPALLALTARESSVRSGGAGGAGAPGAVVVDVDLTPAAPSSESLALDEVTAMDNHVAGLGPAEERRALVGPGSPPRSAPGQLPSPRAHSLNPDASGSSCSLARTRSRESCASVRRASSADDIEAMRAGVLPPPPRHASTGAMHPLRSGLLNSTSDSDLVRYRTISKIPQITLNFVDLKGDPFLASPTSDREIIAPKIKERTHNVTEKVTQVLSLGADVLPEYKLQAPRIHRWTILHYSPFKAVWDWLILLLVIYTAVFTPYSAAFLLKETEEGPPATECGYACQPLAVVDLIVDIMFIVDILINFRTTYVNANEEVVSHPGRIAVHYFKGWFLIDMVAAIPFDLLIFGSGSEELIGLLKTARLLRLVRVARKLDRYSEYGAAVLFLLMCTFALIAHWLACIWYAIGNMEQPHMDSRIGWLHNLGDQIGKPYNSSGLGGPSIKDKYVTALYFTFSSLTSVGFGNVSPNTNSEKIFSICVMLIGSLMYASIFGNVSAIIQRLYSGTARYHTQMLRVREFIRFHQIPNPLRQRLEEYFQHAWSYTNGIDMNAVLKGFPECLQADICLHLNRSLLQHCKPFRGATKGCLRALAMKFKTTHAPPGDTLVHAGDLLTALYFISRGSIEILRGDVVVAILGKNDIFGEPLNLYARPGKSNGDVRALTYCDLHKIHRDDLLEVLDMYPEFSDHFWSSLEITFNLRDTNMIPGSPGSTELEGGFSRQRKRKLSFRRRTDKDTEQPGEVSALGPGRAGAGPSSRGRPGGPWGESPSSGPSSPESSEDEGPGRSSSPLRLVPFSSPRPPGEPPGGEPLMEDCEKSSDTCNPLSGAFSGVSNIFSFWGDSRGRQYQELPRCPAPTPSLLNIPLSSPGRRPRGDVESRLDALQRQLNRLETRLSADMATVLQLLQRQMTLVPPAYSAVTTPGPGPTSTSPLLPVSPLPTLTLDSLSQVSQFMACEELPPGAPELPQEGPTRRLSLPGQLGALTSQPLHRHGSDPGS

Consider `N.N.[Cl][Pt][Cl]` [Cisplatin], for which, in data set [1] (setting [3]), the “TGI (%)” value is listed as 90% and the “Tumor volume (mm^3) (Day 28)” value stood at 150 ± 9 mm^3. Also, in data set [1] (setting [4]), the “TGI (%)” value is reported as 61.2% and the “Tumor volume (mm^3) (Day 34)” value is listed as 328 ± 37 mm^3.
A word on the IC50: it is the midpoint of a concentration-inhibition curve. Consider `N[C@H]1CC[C@H](c2nc(C3(CN[C@H]4CC4c4ccccc4)CC3)no2)CC1` (stereo partly shown) [Example 142], for which the IC50 against human LSD1 is ≤ 0.05 µM; in the data set on H1417 cells (setting [5]) it was 0.5 to 1 µM. For the same molecule, the Emax in the data set with H1417 cells (setting [6]) is 70 to 90%. Further, the “TGI (%)” value in data set [1] (setting [7]) is reported as 94.9%. Besides, in data set [1] (setting [7]), the “Tumor volume (mm^3) (Day 34)” value was found to be 136 ± 21 mm^3.
Consider `N[C@H]1CC[C@H](c2nc(C3(CN[C@H]4C[C@@H]4c4ccccc4)CC3)no2)CC1` [Example 143], for which, on human LSD1, the IC50 lay within 0.05 to 0.1 µM. The same molecule had an IC50 with H1417 cells (H1417 cells) of 0.5 to 1 µM. Also, in the data set on H1417 cells (H1417 cells, highest percentage inhibition of cell viability), the “Maximum inhibition percentage (%)” value is given as “C (70%>C≥50%)”. Moreover, in data set [1] (setting [7]), the “TGI (%)” value turned out to be 93.3% and the “Tumor volume (mm^3) (Day 34)” value is recorded as 145 ± 29 mm^3.
Regarding `N[C@H]1C[C@H](c2nc(C3(CN[C@@H]4C[C@H]4c4ccccc4)CC3)no2)C1` [Example 146], the figures for the IC50 against human LSD1, in the data set with H1417 cells (setting [5]) and at hERG potassium channel were ≤ 0.05 µM, 0.5 to 1 µM and > 40 µM, respectively. The Emax with H1417 cells (setting [6]) was 90 to 100%.
`NC1CC2(C1)CC(c1nc(C3(CN[C@@H]4C[C@H]4c4ccccc4)CC3)no1)C2` (stereo partly shown) [Example 151]: the IC50 against human LSD1 is ≤ 0.05 µM. Further, in the data set on H1417 cells (setting [5]), the concentration for half-maximal inhibition (IC50) fell in the range of 0.1 to 0.5 µM. Besides, the Emax in the data set with H1417 cells (setting [6]) lay in the range of 90 to 100%. Besides, in data set [1] (setting [8]), the “TGI (%)” value is given as 66.3% and the “Tumor volume (mm^3) (Day 27)” value is given as 250 ± 50 mm^3.
As to `NC12CCC(c3nc(C4(CN[C@@H]5C[C@H]5c5ccccc5)CC4)no3)(CC1)CC2` [Example 155], the IC50 on human LSD1 was ≤ 0.05 µM; in the data set with H1417 cells (setting [5]) it was 0.1 to 0.5 µM; against hERG potassium channel, > 40 µM. Besides, the Emax in the data set with H1417 cells (setting [6]) lay within 90 to 100%. Moreover, the “TGI (%)” value in data set [1] (setting [8]) is 78.7%. Moreover, in data set [1] (setting [8]), the “Tumor volume (mm^3) (Day 27)” value is on record as 200 ± 15 mm^3.
As a reminder, the bioavailability is dose-corrected exposure relative to a reference, in per cent. The molecule `O=C(O)[C@H]1CC[C@H](c2nc(C3(CN[C@@H]4C[C@H]4c4ccccc4)CC3)no2)CC1` [Example 167] came in with an IC50 on human LSD1 of 0.1 to 0.5 µM. Further, in data set [2], the Cmax was 5090 ng/mL, the clearance is 11.6 mL/min/kg, the half-life was 1.4 h and the Vd came to 0.4 L/kg. Moreover, in data set [2], the bioavailability was found to be 48.1% and the AUC(0-t) was determined as 3.51 µM·h. Also, in data set [1] (setting [9]), the “TGI (%)” value amounted to 81.4% and the “Tumor volume (mm^3) (Day 34)” value is on record as 213 ± 37 mm^3. Also, in data set [1] (setting [7]), the “TGI (%)” value came out at 78.2% and the “Tumor volume (mm^3) (Day 34)” value was 231 ± 28 mm^3.
With `CN[C@H]1CC[C@H](c2nc(C3(CN[C@@H]4C[C@H]4c4ccccc4)CC3)no2)CC1` [Example 232], the IC50 on human LSD1 is 0.05 to 0.1 µM; in the data set on H1417 cells (setting [5]), 0.5 to 1 µM; on hERG potassium channel, > 40 µM. In the data set with H1417 cells (setting [6]), the Emax fell in the range of 70 to 90%. Also, the “TGI (%)” value in data set [1] (setting [8]) worked out at 51.1%. The “Tumor volume (mm^3) (Day 27)” value in data set [1] (setting [8]) came out at 313 ± 28 mm^3.
With `N[C@H]1CC[C@H](c2noc(C3(CN[C@@H]4C[C@H]4c4ccccc4)CC3)n2)CC1` [Example 242], the IC50 against human LSD1 is ≤ 0.05 µM. Moreover, in the data set on H1417 cells (setting [5]), the IC50 was ≤ 0.1 µM. Also, the Emax in the data set on H1417 cells (setting [6]) was in the range of 90 to 100%. In addition, in data set [2], the Cmax was 179 ng/mL, the clearance stood at 72.1 mL/min/kg, the half-life is 2 h and the Vd was found to be 10.3 L/kg. Besides, in data set [2], the bioavailability worked out at 57.5% and the AUC(0-t) came out at 0.712 µM·h.

(Values after patent US11433053B2, “LSD1 inhibitor and preparation method and application thereof” (CSPC ZHONGQI PHARMACEUTICAL TECHNOLOGY (SHIJIAZHUANG) CO., …, priority 2017, dated 2022).)
